Assay results: patent US20240139026A1, “Ophthalmic Lenses And Methods For Correcting, Slowing, Reducing, And/Or Controlling The Progression Of Myopia In Conjunction With Use Of Atropine Or Related Compounds” (Brien Holden Vision Institute Limited, priority 2020, published 2024)

Tests used:
myopia progression = conditions: cited from earlier work
[1] = tested on: amplitude of accommodation; conditions: concentrations greater than 0.1% Atropine; children aged 6-12 years; cited from earlier work
[2] = tested on: myopic eye of an individual; test: Spherical aberration of combined spectacle lens and eye system with Atropine-enlarged pupil; assay type: in vivo; conditions: -2.00 D myope; pupillary diameter increase from about 3 mm to about 6 mm with use of Atropine
Excerpt: FIG. 1A illustrates a schematic plot of pupil diameters resulting from use of Atropine, a widely used muscarinic receptor antagonist and a pharmaceutical agent for myopia therapy. […] Considering FIG. 1A, it is observed that use of 0.01% Atropine which to date is the lowest concentration used for treatment of myopia in individuals, increases the photopic pupillary diameter by approximately 1 mm. Increasing the concentration to anywhere from 0.025% to 0.1% Atropine, increases the photopic pupil size from about 2 mm to about 3 mm. With the highest concentration of 0.5% Atropine, the increase in photopic pupil size was largest and at about 3 mm. An increase in pupil size increases aberrations of the eye. […] FIG. 1B illustrates the increase in higher order aberrations from 3rd to 6th order as determined by aberrometry for the myopic eye of an individual who has a distance refractive error of approximately −2.00 D. It is observed that there is a significant increase in aberrations with a larger pupil. An increase in the pupil size may result in a functional decrement in visual performance and one or more unwanted effects such as poorer visual performance, reduced contrast, blurred vision, increased glare and increased photophobia (sensitivity to light). […]

## CN1[C@@H]2CC[C@H]1C[C@@H](OC(=O)C(CO)c1ccccc1)C2 (stereo partly shown) [Atropine]
Myopia progression; Atropine eye drops 0.01% to 1.0%
  concentration dependence of efficacy: the higher the concentration, the greater the efficacy
Myopia progression; used topically
  efficacy in slowing myopia progression: demonstrated a level of efficacy in slowing myopia progression
[1]
  reduction of amplitude of accommodation: reduce the amplitude of accommodation by more than half
[2]
  effective increase of the spherical aberration of the combined spectacle lens and eye system: about +0.50 D
